Laboratory results reported in patent US20240058340A1, “COMPOSITIONS AND METHODS FOR TREATING CANCER” (The Regents of the University of California, priority 2020, published 2024).

Experiments:
[1] = test system: HCC827 (EGFR exon 19 deletion); assay: Cellular IC50, Cell Titer Glo, HCC827 cell line; type: cell-based; details: Homo sapiens, HCC827 cells, 72 hours
Description: (§1) The PC-9 cell line was purchased from Sigma, and the HCC827 cell line was purchased from ATCC. Each cell line was maintained at ≤passage 10 at 37° C. in a humidified incubator with 5% CO2. Cells were plated in 96-well optical bottom plates (Corning #3903; Corning, NY) at a cell density of 5,000 cells/well, allowed to adhere for minimally 16 hours, and subsequently treated with the test compounds using an 11-point serial dilution (1:3) in duplicate using an HP D300 digital 4 dispenser (Tecan, Morrisville, NC). 72 hours after addition of the test compounds, Cell Titer Glo reagent (Promega, Madison, WI) was added to the plate according to manufacturer's protocol and luminescence measured using a Spectramax M5 (Molecular Devices, San Jose, CA). IC50s were calculated using the 4-parameter variable slope curve fit using the equation below where, Y and X are variables plotted, Top and Bottom are plateaus in the units of the Y axis, LogIC50 is the Log transformation of the IC50 value and HillSlope is the Hill Slope for the curve and describes curve steepness (GraphPad Prism, version 6.07, GraphPad Software, Inc.). Y=Bottom+(Top−Bottom)/(1+10((LogIC50−X)*HillSlope))).

[2] = test system: PC-9 (EGFR exon 19 deletion); assay: Cellular IC50, Cell Titer Glo, PC-9 cell line; type: cell-based; details: Homo sapiens, PC-9 cells, 72 hours
Description: as §1

[3] = Brain penetration in non-tumor bearing mice; type: in vivo; details: for Brain Penetration (% of plasma): brain to plasma percentage; for Kpuu (Avg): unbound ratio of drug in brain to plasma
From the text: Disclosed in table 5 Brain to plasma percentages and unbound ratios of drugs in brain to plasma of indicated drugs in non-tumor bearing mice

| IC50 [1] | IC50 [2] | Brain Penetration (% of plasma) [3] | Kpuu (Avg) [3] | SMILES |
| --- | --- | --- | --- | --- |
| – | – | 64.8 % of plasma | 0.491 | C#Cc1cccc(Nc2ncnc3cc4c(cc23)OCCO4)c1 [JGK005] |
| – | – | 106.4 % of plasma | 1.045 | Fc1c(Cl)cccc1Nc1ncnc2cc3c(cc12)OCCO3 [JGK010] |
| – | – | 106.2 % of plasma | 1.037 | Fc1cccc(Nc2ncnc3cc4c(cc23)OCCO4)c1F [JGK028] |
| – | – | 84.3 % of plasma | 0.575 | C#Cc1cccc(Nc2ncnc3cc4c(cc23)OCCO4)c1F [JGK038] |
| – | – | 167.6 % of plasma | 1.033 | Fc1c(I)cccc1Nc1ncnc2cc3c(cc12)OCCO3 [JGK042] |

Continued, molecule first:

| SMILES | IC50 [1] | IC50 [2] | Brain Penetration (% of plasma) [3] | Kpuu (Avg) [3] |
| --- | --- | --- | --- | --- |
| CN1CCC2CN(C[C@H]3COc4cc5ncnc(Nc6cccc(Br)c6F)c5cc4O3)CC21 (stereo partly shown) | 0.0059 µM | 0.0129 µM | – | – |
| CN1CC2CN(C[C@H]3COc4cc5ncnc(Nc6cccc(Br)c6F)c5cc4O3)CC2C1 (stereo partly shown) | 0.0143 µM | 0.0217 µM | – | – |
| CN1CCN(C[C@H]2COc3cc4ncnc(Nc5cccc(Br)c5F)c4cc3O2)CCC1C(F)(F)F (stereo partly shown) | 0.0369 µM | 0.054 µM | – | – |
| CN1CCN(C[C@H]2COc3cc4ncnc(Nc5cccc(Br)c5F)c4cc3O2)CC(F)(F)C1 | 0.0506 µM | 0.14 µM | – | – |
| CN1CCC12CN(C[C@H]1COc3cc4ncnc(Nc5cccc(Br)c5F)c4cc3O1)C2 | 0.007 µM | 0.0094 µM | – | – |
| CN1CC2(C1)CN(C[C@H]1COc3cc4ncnc(Nc5cccc(Br)c5F)c4cc3O1)C2 | 0.0059 µM | 0.0101 µM | – | – |
